No end group written: not given here.
Assay: Stability of peptide in human plasma
Format: in vitro ADME

## PVLDLFRELLNELLEALKQKLKPDWLKAFYDKVAEKLKEAF [22A-P-18A]
Human plasma, 24h incubation
  peptide lost, in sHDL particles: 15%
human, plasma, SD
  remaining at 24 h, 0.25 mg/mL: 73.6 ± 6.3%
